Source: PubChem BioAssay (NCI)
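Abbreviation: GI50, concentration required for 50% inhibition of growth. Definition used: TGI = concentration required for complete inhibition of growth.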

What was measured:
Test in all cases: DTP human tumour cell line panel, 384-well format
[1] = test system: A498 renal
[2] = test system: A549 NSCLC
[3] = test system: ACHN renal
[4] = test system: BT-549 breast
[5] = test system: CAKI-1 renal
[6] = test system: COLO 205 colon
[7] = test system: DU-145 prostate
[8] = test system: EKVX NSCLC
[9] = test system: HCC-2998 colon
[10] = test system: HCT-116 colon
[11] = test system: HCT-15 colon
[12] = test system: HL-60(TB) leukemia
[13] = test system: HOP-62 NSCLC
[14] = test system: HOP-92 NSCLC
[15] = test system: HS 578T breast
[16] = test system: HT29 colon
[17] = test system: IGROV1 ovarian
[18] = test system: KM12 colon
[19] = test system: LOX IMVI melanoma
[20] = test system: M14 melanoma
[21] = test system: MALME-3M melanoma
[22] = test system: MCF7 breast
[23] = test system: MDA-MB-231 breast
[24] = test system: MDA-MB-435 melanoma
[25] = test system: MDA-MB-468 breast
[26] = test system: MOLT-4 leukemia
[27] = test system: NCI-H226 lung

SMILES: O=C(O)CCCCC(CCSCc1ccccc1)SCc1ccccc1 (centres undefined)
- GI50 [1]: 42.3 µM
- TGI [1]: > 100 µM
- GI50 [2]: 44 µM
- TGI [2]: > 100 µM
- GI50 [3]: > 100 µM
- TGI [3]: > 100 µM
- GI50 [4]: > 100 µM
- TGI [4]: > 100 µM
- GI50 [5]: > 100 µM
- TGI [5]: > 100 µM
- GI50 [6]: > 100 µM
- TGI [6]: > 100 µM
- GI50 [7]: 64 µM
- TGI [7]: > 100 µM
- GI50 [8]: 37.3 µM
- TGI [8]: > 100 µM
- GI50 [9]: 47.5 µM
- TGI [9]: > 100 µM
- GI50 [10]: 47.5 µM
- TGI [10]: > 100 µM
- GI50 [11]: 45.1 µM
- TGI [11]: > 100 µM
- GI50 [12]: 58.8 µM
- TGI [12]: > 100 µM
- GI50 [13]: 50.4 µM
- TGI [13]: > 100 µM
- GI50 [14]: > 100 µM
- TGI [14]: > 100 µM
- GI50 [15]: > 100 µM
- TGI [15]: > 100 µM
- GI50 [16]: 53.7 µM
- TGI [16]: > 100 µM
- GI50 [17]: 68.3 µM
- TGI [17]: > 100 µM
- GI50 [18]: 45.4 µM
- TGI [18]: > 100 µM
- GI50 [19]: > 100 µM
- TGI [19]: > 100 µM
- GI50 [20]: > 100 µM
- TGI [20]: > 100 µM
- GI50 [21]: > 100 µM
- TGI [21]: > 100 µM
- GI50 [22]: 66.9 µM
- TGI [22]: > 100 µM
- GI50 [23]: > 100 µM
- TGI [23]: > 100 µM
- GI50 [24]: > 100 µM
- TGI [24]: > 100 µM
- GI50 [25]: 39.7 µM
- TGI [25]: > 100 µM
- GI50 [26]: > 100 µM
- TGI [26]: > 100 µM
- GI50 [27]: 97.6 µM
- TGI [27]: > 100 µM
